The subject of test [1] is Colletotrichum orbiculare. Put plainly: Antifungal activity against Colletotrichum orbiculare infested cucumber plant grown under greenhouse condition assessed as reduction in lesion formation on second leaves at 10 to 500 ug/ml sprayed at two-leaf stage 1 day prior inoculation measured after 6 days post inoculation. Format: functional, organism-based.
The subject of test [2] is Colletotrichum orbiculare. Put plainly: Antimicrobial activity against Colletotrichum orbiculare assessed as mycelial growth inhibition after 3 to 5 days. Format: functional.
Test [3] has as its system Colletotrichum orbiculare. The test is described as follows: Antifungal activity against Colletotrichum orbiculare infested cucumber plant grown under greenhouse condition assessed as reduction in lesion formation on second leaves at 500 ug/ml sprayed at two-leaf stage 1 day prior inoculation measured after 6 days post inoculation. Format: functional, organism-based.
Test [4] deals with Fusarium oxysporum f. sp. lycopersici. Put plainly: Antimicrobial activity against Fusarium oxysporum f. sp. lycopersici assessed as mycelial growth inhibition after 3 to 5 days. Format: functional.
In test [5] the test system is Pectobacterium carotovorum subsp. carotovorum. Put plainly: Antimicrobial activity against Pectobacterium carotovorum subsp. carotovorum assessed as mycelial growth inhibition after 3 to 5 days. It counts as functional.
For test [6], the system named is Globisporangium ultimum. Put plainly: Antimicrobial activity against Pythium ultimum assessed as mycelial growth inhibition after 3 to 5 days. It counts as functional.
Test [7] has as its system Phytophthora capsici. The test is described as follows: Antimicrobial activity against Phytophthora capsici assessed as mycelial growth inhibition after 3 to 5 days. It counts as functional.
In test [8] the test system is Pyricularia grisea. Put plainly: Antimicrobial activity against Magnaporthe grisea assessed as mycelial growth inhibition after 3 to 5 days. It counts as functional.
Test [9] relates to Rhizoctonia solani. Put plainly: Antimicrobial activity against Rhizoctonia solani assessed as mycelial growth inhibition after 3 to 5 days. It counts as functional.
Test [10] concerns Botrytis cinerea. The test is described as follows: Antimicrobial activity against Botryotinia fuckeliana assessed as mycelial growth inhibition after 3 to 5 days. Format: functional.
For test [11], the system named is Colletotrichum orbiculare. The test is described as follows: Antifungal activity against Colletotrichum orbiculare infested cucumber plant grown under greenhouse condition assessed as supression of anthracnose development at 500 ug/ml sprayed at two-leaf stage 1 day prior inoculation measured after 6 days post inoculation. Format: functional, organism-based.
The test system of test [12] is Candida albicans. Put plainly: Antimicrobial activity against Candida albicans assessed as mycelial growth inhibition after 3 to 5 days. Format: functional.
Test [13] relates to Saccharomyces cerevisiae. Put plainly: Antimicrobial activity against Saccharomyces cerevisiae assessed as mycelial growth inhibition after 3 to 5 days. Format: functional.
The subject of test [14] is Ilyonectria destructans. The test is described as follows: Antimicrobial activity against Ilyonectria radicicola assessed as mycelial growth inhibition after 3 to 5 days. Format: functional.
Test [15] concerns Alternaria mali. Put plainly: Antimicrobial activity against Alternaria mali assessed as mycelial growth inhibition at 100 ug/ml after 3 to 5 days. It counts as functional, organism-based.
The test system of test [16] is Ralstonia solanacearum. Put plainly: Antimicrobial activity against Ralstonia solanacearum assessed as mycelial growth inhibition after 3 to 5 days. It counts as functional.
Test [17] concerns Xanthomonas campestris. The test is described as follows: Antimicrobial activity against Xanthomonas euvesicatoria assessed as mycelial growth inhibition after 3 to 5 days. Format: functional.
Test [18] has as its system Bacillus subtilis. Put plainly: Antimicrobial activity against Bacillus subtilis assessed as mycelial growth inhibition after 3 to 5 days. It counts as functional.
Test [19] relates to Sclerotinia sclerotiorum. Put plainly: Antimicrobial activity against Sclerotinia sclerotiorum assessed as mycelial growth inhibition after 3 to 5 days. It counts as functional.
The subject of test [20] is Cladosporium cucumerinum. Put plainly: Antimicrobial activity against Cladosporium cucumerinum assessed as mycelial growth inhibition after 3 to 5 days. It counts as functional.

Data on two molecules can be found in ChEMBL document CHEMBL3046564, “Antifungal activity of beta-asarone from rhizomes of Acorus gramineus” (2004).

The structures appear in SMILES notation. ≈ marks a conversion by molar mass, not a printed value. Calls of active or inactive are those of the source. The calls are words filed in the database; no cut-off is given here.

As for `N#Cc1c(Cl)c(Cl)c(Cl)c(C#N)c1Cl`, the outcome in [1] was Active.
As for `C/C=C\c1cc(OC)c(OC)cc1OC` [CIS-ASARONE], the MIC in [2] was 30 µg/mL (≈ 144 µM); in [4], over 100 µg/mL; in test [5] it was 50 µg/mL (≈ 240 µM); in test [6], 0.5 µg/mL (≈ 2.4 µM); in test [7], over 100 µg/mL; in test [8], 30 µg/mL (≈ 144 µM). Besides, the MIC in test [9] is over 100 µg/mL; in test [10], over 100 µg/mL; in [12], over 100 µg/mL; in test [13] it was over 100 µg/mL; in test [14] it was over 100 µg/mL; in [16] it was 50 µg/mL (≈ 240 µM). Further, the MIC in [17] was 50 µg/mL (≈ 240 µM); in test [18], 50 µg/mL (≈ 240 µM); in [19] it was over 100 µg/mL; in test [20], 30 µg/mL (≈ 144 µM). Further, the result in [3] and in test [11] was Active. Moreover, the “growth inhibition (GI)” value in test [15] is “inactive”.
